# Reference: patent US20040265836A1, “Methods for the identification of inhibitors of C4 Long Chain Base Hydroxylase activity in plants” (priority 2003, published 2004)
# What was measured:
# [1] = test system: yeast strain PGY8 (wild type); assay: Syringomycin E sensitivity growth assay, wild type yeast strain PGY8; format: cell-based, Saccharomyces cerevisiae; conditions: PGY8 in rich medium; 5 μl of approximately 14-fold concentrated Syringomycin E-containing fraction dried in well of 384-well plate
# Description: (§1) Syringomycin E is not a commercially available antibiotic and was, therefore, purified from the bacterium Pseudomonas syringae pv. syringae according to the method of (Bidwai & Zhang et al., 83 Plant Physiol 39-43 (1987)). Briefly, stationary-phase liquid cultures of P. syringae pv. syringae were extracted with acidified acetone and fractionated over an Amberlite XAD-2 (Sigma) column using a linear gradient of 0.1% trifluoroacetic acid/0.1% trifluoroacetic acid in 2-propanol. Each fraction was assayed for ability to inhibit growth of wild type (PGY8) and sur2 (PGY29) yeast strains. For the assay, 10 ml fractions were collected and 50 μl of each fraction was applied a 96-well plate and dried in a vacuum concentrator. […] of rich medium containing mid-logarithmic PGY8 or PGY29 at a cell density of 10^5 cells/ml were applied to each well. Growth was monitored after 18 hours by determining the absorbance at 600 nm. Syringomycin E-containing fractions were identified as those that inhibited growth of PGY8 but not of PGY29.
# (§2) The ability of the amino-terminal truncated Arabidopsis LCBH to confer Syringomycin E sensitivity on the yeast sur2 mutant was determined as follows. […] 100 μl of yeast strains PGY8 and PGY29 in rich medium, or PGY31 in rich medium supplemented with galactose were added to each well and growth was monitored at 600 nm.
# [2] = test system: yeast strain PGY31 (sur2 mutant expressing the truncated form of C4-LCBH); assay: Syringomycin E sensitivity growth assay, sur2 mutant expressing truncated Arabidopsis LCBH (PGY31); format: cell-based, Saccharomyces cerevisiae; conditions: PGY31 in rich medium supplemented with galactose; 5 μl of approximately 14-fold concentrated Syringomycin E-containing fraction dried in well of 384-well plate
# Description: as §1, §2
# [3] = test system: yeast strain PGY29 (sur2); assay: Syringomycin E sensitivity growth assay, sur2 mutant strain PGY29; format: cell-based, Saccharomyces cerevisiae; conditions: PGY29 in rich medium; 5 μl of approximately 14-fold concentrated Syringomycin E-containing fraction dried in well of 384-well plate
# Description: as §1, §2
# Wild-type yeast strains = conditions: cited from earlier work
# sur2 mutants = conditions: cited from earlier work
substance,measurement,setting,value
Syringomycin E,Growth in the presence of Syringomycin E (monitored at 600 nm),[1],completely inhibited
same,Growth in the presence of Syringomycin E (monitored at 600 nm),[2],completely inhibited
same,Growth in the presence of Syringomycin E (monitored at 600 nm),[3],able to grow
same,Sensitivity to syringomycin E,Wild-type yeast strains,sensitive
same,Growth in the presence of syringomycin E,sur2 mutants,able to grow
